Where “and” joins values, the source holds several entries; their conditions need not be identical. Equal values may be shown once.
Tests used:
PEA-13 cells = assay: [methyl-3H] thymidine incorporation, PEA-13 cells; format: cell-based, mouse; details: IGFBP-3 up to 1 μg/ml
Experimental: (§1) FIG. 7 depicts the effect of TGF-β1 on DNA synthesis (A), cell growth (B) and PAI-1 expression (C) in MEF and PEA-13 cells. (A) Cells were treated with various concentrations of TGF-β1 as indicated. DNA synthesis was determined by measuring [methyl-^3H] thymidine incorporation into cellular DNA. The [methyl-^3H] thymidine incorporation in cells treated without TGF-β1 (100,861±3,720 and 103,262±6,722 cpm/well for MEF and PEA-13 cells, respectively) was taken as 0% inhibition. The negative values of inhibition indicate mitogenic activity. […] Each datapoint is the mean±S.D. of quadruplicate determinations. […] Data are representative of six similar experiments. (B) Cells were treated with various concentrations of TGF-β1 as indicated. The cell number was counted after a 4 day incubation. […] The negative values of the inhibition indicate the growth stimulatory activity. Each datapoint is the mean±S.D. of quadruplicate determinations. […] Data are representative of four similar experiments. (C) Cells were treated with various concentrations of TGF-β1 as indicated. The PAI-1 expression in these cells was determined by Northern blot analysis. The expression of G3PDH was used as control. The relative levels of the transcripts were quantified by a PhosphoImager. Data are representative of four similar experiments. […]

PEA-C11 cells [1] = assay: [methyl-3H] thymidine incorporation, PEA-C11 cells; format: cell-based, mink; details: IGFBP-3 0.5 μg/ml
H1299/vector cells [2] = assay: [methyl-3H] thymidine incorporation, H1299/vector cells; format: cell-based, human; details: various concentrations
IRS-2 [3] = assay: 32P metabolic labeling and immunoprecipitation of IRS-2, MB102-9 cells; format: cell-based, mink; details: MB102-9 cells (αIβII); IGFBP-3 1 μg/ml, GM-CSF 1 nM
32D/IR/IRS-2 cells = assay: [methyl-3H] thymidine incorporation, 32D/IR/IRS-2 cells; format: cell-based, murine; details: 32D cells expressing IRS-2 and insulin receptor
MEF cells = assay: Cell growth (cell number), MEF cells; format: cell-based, mouse; details: IGFBP-3 up to 1 μg/ml
Experimental: as §1, with “The expression of G3PDH was used as control.” left out, “PhosphoImager.” for “PhosphoImager. Data are representative of four similar experiments.”
Cells were plated at a density of 1-2×10^4 cells/dish in DMEM containing 1% fetal calf serum. The cell number was counted every day or after a 3-day incubation using a hematocytometer. […]

[4] = test system: 32D cells expressing vector only; assay: [methyl-3H] thymidine incorporation, 32D cells transfected with vector only; format: cell-based, murine
32D/IRS-1 cells = assay: [methyl-3H] thymidine incorporation, 32D/IRS-1 cells; format: cell-based, murine; details: 32D cells expressing IRS-1
IRS-2 [5] = assay: Determination of tyrosine phosphorylation of IRS-2, Mv1Lu cells; format: cell-based, mink
Experimental: FIG. 15 depicts tyrosine phosphorylation of IRS-2 in Mv1Lu cells treated with IGFBP-3 and insulin. Cells were stimulated with or without insulin (10 nM) for 10 min and then treated with or without IGFBP-3 (1 μg/ml) for 1 hr (A). On the other hand, cells pretreated with or without IGFBP-3 (1 μg/ml) for 2 hr and then stimulated with insulin (10 nM) for 10 min (B, lane 1 and lane 2, respectively). In a parallel experiment, cells were treated with insulin (10 nM) in the presence and absence of IGFBP-3 (1 μg/ml) for 2 hr (B, lane 3 and lane 4, respectively). […] The arrow indicates the location of tyrosine-phosphorylated IRS-2.
Mv1Lu cells were plated on 30-mm dishes at a cell density of 4×10^4/cm^2 in DMEM containing 10% fetal calf serum. The cells in serum-free DMEM were pre-treated with IGFBP-3 (1 μg/ml) for 1 or 2 hr and then treated with insulin (10 nM) for 10 min or treated with insulin (10 nM) for 10 min and then treated with IGFBP-3 (1 μg/ml) for a further 2 hr, or treated simultaneously with insulin (10 nM) and IGFBP-3 (1 μg/ml) for 2 hr. The experiments were carried out at 37° C. The cell lysates were subjected to immunoprecipitation using anti-IRS-2 IgG followed by 7.5% SDS-PAGE and Western blot analysis using anti-phosphotryosine IgG and the ECL system (Santa Cruz).

H1299/vector cells [6] = assay: Cell growth (cell number), H1299/vector cells; format: cell-based, human; details: TGF-β1 20 pM or IGFBP-3 1 μg/ml, 3-day
PEA-C11 cells [7] = assay: Cell growth (cell number), PEA-C11 cells; format: cell-based, mink; details: IGFBP-3 0.5 μg/ml, PEA-C11, 4-day
Experimental: FIG. 6 depicts the effects of IGFBP-3 and TGF-β1 on DNA synthesis (A), cell growth (B) and PAI-1 expression (C) in Mv1Lu and PEA-C11 cells. (A,B) Cells were incubated with various concentrations of IGFBP-3 (a) or TGF-β1 (b) as indicated. DNA synthesis and cell growth were determined by measuring the [methyl-^3H] thymidine incorporation into cellular DNA after 18 hr incubation (A) and by counting cell number after a 4-day incubation (B), respectively. The [methyl-^3H] thymidine incorporation in cells treated without IGFBP-3 and TGF-β1 (29,170±1,657 and 59,947±7,692 cpm/well for Mv1Lu and PEA-C11 cells, respectively) were taken as 0% inhibition. […] Each data point is the mean±S.D. of quadruplicate determinations. […] Data are representative of eight similar experiments. (C) Cells were incubated with various concentrations of TGF-β1 as indicated. After 2 hr at 37° C., the PAI-1 expression was determined by Northern blot analysis. The expression of glyceraldehyde-3-phosphate dehydrogenase (G3PDH) was used as control. The relative levels of the transcripts were quantified by a Phospholmager. Data are representative of four similar experiments.
Cells were plated at a density of 1-2×10^4 cells/dish in DMEM containing 1% fetal calf serum. The cell number was counted every day or after a 3-day incubation using a hematocytometer. The assays were performed in quadruplicate.

Mv1Lu cells = assay: [methyl-3H] thymidine incorporation (DNA synthesis), Mv1Lu cells; format: cell-based, mink; details: IGFBP-3 0.5 μg/ml, Mv1Lu

IGFBP-3: human insulin-like growth factor binding protein-3 expressed in E. Coli
Effect on DNA synthesis (PEA-13 cells): did not appear to have a significant effect | Inhibition of DNA synthesis (PEA-C11 cells [1]): ~10% | Effect on DNA synthesis (H1299/vector cells [2]): acted as mitogens or growth stimulators | Specific dephosphorylation (mobility change) of IRS-2 (IRS-2 [3]): induced specific dephosphorylation | Growth inhibitory response (DNA synthesis) (32D/IR/IRS-2 cells): potent growth inhibitory response | Effect on cell growth (MEF cells): did not appear to have a significant effect | Inhibition of DNA synthesis [4]: minimally or not at all | Growth inhibitory response (DNA synthesis) (32D/IRS-1 cells): potent growth inhibitory response | Effect on insulin-stimulated tyrosine phosphorylation of IRS-2 (IRS-2 [5]; IGFBP-3 pretreatment 2 hr, then insulin 10 nM 10 min): diminished | Effect on insulin-stimulated tyrosine phosphorylation of IRS-2 (IRS-2 [5]; insulin 10 nM 10 min, then IGFBP-3 1 μg/ml 1 hr): failed to affect | Effect on insulin-stimulated tyrosine phosphorylation of IRS-2 (IRS-2 [5]; simultaneous insulin 10 nM and IGFBP-3 1 μg/ml, 2 hr): enhancement | Effect on cell growth (H1299/vector cells [6]): acted as mitogens or growth stimulators | Inhibition of cell growth (PEA-C11 cells [7]): ~45% | Inhibition of DNA synthesis (Mv1Lu cells): ~30% and 30-50%

— patent publication US7741283B2, “Compositions and methods for inhibiting cell proliferation” (St. Louis University, priority 2003, dated 2010)
